{"source": "patent US7220832B2", "about": "“Dermacentor variabilis GABA-gated chloride channels” (priority 2000, dated 2007)", "system": "D. variabilis GABA-gated chloride channel", "assay": "Two-microelectrode voltage clamp recording of Xenopus laevis oocytes injected with Dv8, Dv9 or Dv5 mRNA", "assay_type": "cell-based, Dermacentor variabilis", "settings": "for current in response to application of compound: 1 mM, oocytes expressing Dv8 and Dv9 (SEQ. ID. NOs. 1 and 2), holding potential 0 or -30 mV; for block of the GABA-activated current: current activated by 1 mM GABA", "method": "Functional expression of a D. variabilis GABA-gated chloride channel was observed using MRNA encoding for the polypeptide of SEQ. ID. NOs. 1, 2, and 3 injected into Xenopus laevis oocytes. MRNA encoding for SEQ. ID. NOs. 1, 2, and 3 were obtained using the Dv8, Dv9, and Dv5 clones as described in Example 1.\nXenopus laevis oocytes were prepared and injected using standard methods previously described. (Arena et al., Mol. Pharmaco. 40:368-374, 1991; and Arena et al., Mol. Brain Res. 15:339-348, 1992.) Adult female Xenopus laevis were anesthetized with 0.17% tricaine methanesulfonate and the ovaries were surgically removed and placed in a solution consisting of (mM): NaCl 82.5, KCl 2, MgCl2 1, HEPES 5, NaPyruvate 2.5, Penicillin G. 100,000 units/L, Streptomycin Sulfate 1000 mg/L, pH 7.5 (Mod. OR-2).\nOvarian lobes were broken open, rinsed several times in Mod. OR-2, and incubated in 0.2% collagenase (Sigma, Type1) in Mod. OR-2 at room temperature with gentle shaking. After 1 hour the collagenase solution was renewed and the oocytes were incubated for an additional 30-90 minutes until approximately 50% of the oocytes were released from the ovaries. Stage V and VI oocytes were selected and placed in media containing (mM): NaCl 96, KCl 2, MgCl2 1, CaCl2 1.8, HEPES 5, NaPyruvate 2.5, theophylline 0.5, gentamicin […], pH 7.5 (ND-96) for 16-24 hours before injection. Oocytes were injected with 50 nl of Dv8, Dv9, or Dv5 RNA at a concentration of 0.2 mg/ml. Oocytes were incubated at 18° C. for 1-6 days in ND-96 before recording.\nRecordings were made at room temperature in modified ND-96 consisting of (mM): NaCl 96, MgCl2 1, CaCl2 0.1, BaCl2 3.5, HEPES 5, pH 7.5. Oocytes were voltage clamped using a Dagan CA1 two microelectrode amplifier (Dagan Corporation, Minneapolis, Minn.) interfaced to a Macintosh 7100/80 computer. The current passing electrode was filled with 0.7 M KCl, 1.7 M KCitrate, and the voltage recording electrode was filled with 1 M KCl. Throughout the experiment oocytes were superfused with modified ND-96 (control solution) or with ND-96 containing potential channel activators and blockers at a rate of approximately 3 ml/min. Data were acquired at 100 Hz and filtered at 33.3 Hz using Pulse software from HEKA Elektronik (Lambrecht, Germany). All recordings were performed from a holding potential of either 0 or −30 mV.\nDuring a 60s application of GABA approximately 50% of the current desensitized and the remaining current deactivated rapidly upon wash-out of GABA. Repeated applications of 1 mM GABA elicited similar responses. […] Oocytes injected with Dv5 mRNA responded similarly to oocytes injected with Dv8 and Dv9 mRNA (data not shown).", "data": [{"smiles": "NCCCC(=O)O", "note": "[GABA, γ-Aminobutric acid]", "values": [{"measurement": "current in response to application of compound", "value": "rapidly activating current"}, {"measurement": "fraction of the current desensitized during application", "setting": "60s application of 1 mM GABA, oocytes expressing Dv8 and Dv9", "value": "approximately 50%"}]}, {"smiles": "C=C(C)[C@@H]1[C@H]2OC(=O)[C@@H]1[C@]1(O)C[C@H]3O[C@]34C(=O)O[C@H]2[C@]14C", "note": "[picrotoxinin]", "values": [{"measurement": "block of the GABA-activated current", "setting": "10 μM, data not shown", "value": "blocked completely"}]}, {"smiles": "N#Cc1nn(-c2c(Cl)cc(C(F)(F)F)cc2Cl)c(N)c1[S+]([O-])C(F)(F)F", "note": "(centres unmarked) [fipronil]", "values": [{"measurement": "block of the GABA-activated current", "setting": "5 μM, FIG. 5, channel of SEQ. ID. NO. 2 (Dv9)", "value": "blocked completely"}]}, {"smiles": "N[C@@H](CCC(=O)O)C(=O)O", "note": "[glutamate]", "values": [{"measurement": "current in response to application of compound", "value": "did not activate a current"}]}]}
